Source: the NIST ThermoML archive (doi:10.1016/j.jct.2010.12.020)
Where “and” joins values, the source holds several entries; their conditions need not be identical. Equal values may be shown once. Numbers after ± are expanded uncertainties.

Assay: activity coefficient (dimensionless); of the first substance listed, at infinite dilution; xn = mol fraction of the nth substance listed
Conditions: 101 kPa, Liquid, Chromatography, x1 = 0

SMILES | activity coefficient (303.15 K) | activity coefficient (313.15 K) | activity coefficient (323.15 K)
C#CCCCC [1-hexyne] + CCCCCCCC[N+](C)(CCCCCCCC)CCCCCCCC.O=C(O)c1ccccc1[S-] | 0.7 and 0.69 | 0.72 ± 0.09 | 0.75 ± 0.09
C1CCCC1 [cyclopentane] + CCCCCCCC[N+](C)(CCCCCCCC)CCCCCCCC.O=C(O)c1ccccc1[S-] | 1.1 and 1.08 | 1.07 and 1.05 | 1.04 and 1
C1CCCCC1 [cyclohexane] + CCCCCCCC[N+](C)(CCCCCCCC)CCCCCCCC.O=C(O)c1ccccc1[S-] | 1.34 and 1.32 | 1.28 and 1.26 | 1.23 and 1.19
C#CCCCCCC [1-octyne] + CCCCCCCC[N+](C)(CCCCCCCC)CCCCCCCC.O=C(O)c1ccccc1[S-] | 0.88 and 0.84 | 0.92 and 0.9 | 0.94 ± 0.11
CCC(C)=O [butanone] + CCCCCCCC[N+](C)(CCCCCCCC)CCCCCCCC.O=C(O)c1ccccc1[S-] | 0.66 and 0.62 | 0.64 and 0.61 | 0.62 and 0.59
CCCCCCC [heptane] + CCCCCCCC[N+](C)(CCCCCCCC)CCCCCCCC.O=C(O)c1ccccc1[S-] | 2.37 and 2.28 | 2.29 and 2.22 | 2.21 and 2.15
CCCCCCCCC [nonane] + CCCCCCCC[N+](C)(CCCCCCCC)CCCCCCCC.O=C(O)c1ccccc1[S-] | 3.21 and 3.11 | 3.07 and 3.03 | 2.98 and 2.88
C1CCCCCC1 [cycloheptane] + CCCCCCCC[N+](C)(CCCCCCCC)CCCCCCCC.O=C(O)c1ccccc1[S-] | 1.42 and 1.4 | 1.36 and 1.32 | 1.31 and 1.25
Cc1ccccc1 [toluene] + CCCCCCCC[N+](C)(CCCCCCCC)CCCCCCCC.O=C(O)c1ccccc1[S-] | 0.62 and 0.59 | 0.62 and 0.59 | 0.62 and 0.58
CCCCCCCC [octane] + CCCCCCCC[N+](C)(CCCCCCCC)CCCCCCCC.O=C(O)c1ccccc1[S-] | 2.77 and 2.72 | 2.68 and 2.61 | 2.55 and 2.47
C=CCCCCCC [oct-1-ene] + CCCCCCCC[N+](C)(CCCCCCCC)CCCCCCCC.O=C(O)c1ccccc1[S-] | 2.09 and 2.06 | 2.06 and 2.02 | 2 and 1.93
C=CCCCC [hex-1-ene] + CCCCCCCC[N+](C)(CCCCCCCC)CCCCCCCC.O=C(O)c1ccccc1[S-] | 1.57 and 1.55 | 1.53 and 1.51 | 1.51 and 1.46
CC(C)=O [acetone] + CCCCCCCC[N+](C)(CCCCCCCC)CCCCCCCC.O=C(O)c1ccccc1[S-] | 0.69 and 0.65 | 0.66 and 0.63 | 0.64 and 0.61
C1CCCCCCC1 [cyclooctane] + CCCCCCCC[N+](C)(CCCCCCCC)CCCCCCCC.O=C(O)c1ccccc1[S-] | 1.57 ± 0.19 | 1.5 and 1.45 | 1.44 and 1.37
c1ccccc1 [benzene] + CCCCCCCC[N+](C)(CCCCCCCC)CCCCCCCC.O=C(O)c1ccccc1[S-] | 0.51 and 0.48 | 0.5 and 0.48 | 0.5 and 0.47
CCCCC [pentane] + CCCCCCCC[N+](C)(CCCCCCCC)CCCCCCCC.O=C(O)c1ccccc1[S-] | 1.81 ± 0.22 | 1.75 ± 0.22 | 1.7 and 1.65
CCCCCC [hexane] + CCCCCCCC[N+](C)(CCCCCCCC)CCCCCCCC.O=C(O)c1ccccc1[S-] | 2.07 ± 0.26 | 1.98 and 1.96 | 1.92 and 1.87
C#CCCC [1-pentyne] + CCCCCCCC[N+](C)(CCCCCCCC)CCCCCCCC.O=C(O)c1ccccc1[S-] | 0.63 ± 0.08 | 0.65 ± 0.08 | 0.67 ± 0.08
C=CCCC [1-pentene] + CCCCCCCC[N+](C)(CCCCCCCC)CCCCCCCC.O=C(O)c1ccccc1[S-] | 1.39 and 1.4 | 1.36 ± 0.17 | 1.33 and 1.28
